# BindingDB's records for doi:10.1021/jm025595i (Enanta Pharmaceuticals, 2003)
# pIC50: −log10 of the molar value.
# Experiment: Compound was evaluated for its inhibitory activity in a calcineurin inhibition assay (morn)
row,pIC50,Structure (SMILES)
1,6.13,"CC[C@@H]1NC(=O)[C@H]([C@H](O)[C@H](C)C/C=C/C(=O)OCOC)N(C)C(=O)[C@H](C(C)C)N(C)C(=O)[C@H](CC(C)C)N(C)C(=O)[C@H](CC(C)C)N(C)C(=O)[C@@H](C)NC(=O)[C@H](C)NC(=O)[C@H](CC(C)C)N(C)C(=O)[C@H](C(C)C)NC(=O)[C@H](CC(C)C)N(C)C(=O)CN(C)C1=O [6-(5-Ethyl-11,17,26,29-tetraisobutyl-14,32-diisopropyl-1,7,10,16,20,23,25,28,31-nonamethyl-3,6,9,12,15,18,21,24,27,30,33-undecaoxo-1,4,7,10,13,16,19,22,25,28,31undecaaza-cyclotritriacont-2-yl)-6-hydroxy-5-methyl-hex-2-enoic acid methoxymethyl ester]"
2,6.46,CC[C@@H]1NC(=O)[C@H]([C@H](O)[C@H](C)C/C=C/C(=O)OCSC)N(C)C(=O)[C@H](C(C)C)N(C)C(=O)[C@H](CC(C)C)N(C)C(=O)[C@H](CC(C)C)N(C)C(=O)[C@@H](C)NC(=O)[C@H](C)NC(=O)[C@H](CC(C)C)N(C)C(=O)[C@H](C(C)C)NC(=O)[C@H](CC(C)C)N(C)C(=O)CN(C)C1=O [Cyclosporin A analogue]

# Experiment: Compound was evaluated for its inhibitory activity in a calcineurin inhibition assay (MTM)
row,pIC50,Structure (SMILES)
1,5.67,CC[C@@H]1NC(=O)[C@H]([C@H](O)[C@H](C)C/C=C/C(=O)OCSC)N(C)C(=O)[C@H](C(C)C)N(C)C(=O)[C@H](CC(C)C)N(C)C(=O)[C@H](CC(C)C)N(C)C(=O)[C@@H](C)NC(=O)[C@H](C)NC(=O)[C@H](CC(C)C)N(C)C(=O)[C@H](C(C)C)NC(=O)[C@H](CC(C)C)N(C)C(=O)CN(C)C1=O [Cyclosporin A analogue]

# Experiment: Compound was evaluated for its inhibitory activity in a calcineurin inhibition assay (MOM)
row,pIC50,Structure (SMILES)
1,5.72,"CC[C@@H]1NC(=O)[C@H]([C@H](O)[C@H](C)C/C=C/C(=O)OCOC)N(C)C(=O)[C@H](C(C)C)N(C)C(=O)[C@H](CC(C)C)N(C)C(=O)[C@H](CC(C)C)N(C)C(=O)[C@@H](C)NC(=O)[C@H](C)NC(=O)[C@H](CC(C)C)N(C)C(=O)[C@H](C(C)C)NC(=O)[C@H](CC(C)C)N(C)C(=O)CN(C)C1=O [6-(5-Ethyl-11,17,26,29-tetraisobutyl-14,32-diisopropyl-1,7,10,16,20,23,25,28,31-nonamethyl-3,6,9,12,15,18,21,24,27,30,33-undecaoxo-1,4,7,10,13,16,19,22,25,28,31undecaaza-cyclotritriacont-2-yl)-6-hydroxy-5-methyl-hex-2-enoic acid methoxymethyl ester]"

# Experiment: Compound was evaluated for its inhibitory activity in a calcineurin inhibition assay
row,Structure (SMILES),pIC50
1,"CC[C@@H]1NC(=O)[C@H]([C@H](O)[C@H](C)C/C=C/C(=O)OC)N(C)C(=O)[C@H](C(C)C)N(C)C(=O)[C@H](CC(C)C)N(C)C(=O)[C@H](CC(C)C)N(C)C(=O)[C@@H](C)NC(=O)[C@H](C)NC(=O)[C@H](CC(C)C)N(C)C(=O)[C@H](C(C)C)NC(=O)[C@H](CC(C)C)N(C)C(=O)CN(C)C1=O [6-(5-Ethyl-11,17,26,29-tetraisobutyl-14,32-diisopropyl-1,7,10,16,20,23,25,28,31-nonamethyl-3,6,9,12,15,18,21,24,27,30,33-undecaoxo-1,4,7,10,13,16,19,22,25,28,31undecaaza-cyclotritriacont-2-yl)-6-hydroxy-5-methyl-hex-2-enoic acid methyl ester]",6.24
2,"CCOC(=O)CCC[C@@H](C)[C@@H](O)[C@H]1C(=O)N[C@@H](CC)C(=O)N(C)CC(=O)N(C)[C@@H](CC(C)C)C(=O)N[C@@H](C(C)C)C(=O)N(C)[C@@H](CC(C)C)C(=O)N[C@@H](C)C(=O)N[C@H](C)C(=O)N(C)[C@@H](CC(C)C)C(=O)N(C)[C@@H](CC(C)C)C(=O)N(C)[C@@H](C(C)C)C(=O)N1C [6-(5-Ethyl-11,17,26,29-tetraisobutyl-14,32-diisopropyl-1,7,10,16,20,23,25,28,31-nonamethyl-3,6,9,12,15,18,21,24,27,30,33-undecaoxo-1,4,7,10,13,16,19,22,25,28,31undecaaza-cyclotritriacont-2-yl)-6-hydroxy-5-methyl-hexanoic acid ethyl ester]",6.08
3,"CC[C@@H]1NC(=O)[C@H]([C@H](O)[C@H](C)CCCC(=O)OCSC)N(C)C(=O)[C@H](C(C)C)N(C)C(=O)[C@H](CC(C)C)N(C)C(=O)[C@H](CC(C)C)N(C)C(=O)[C@@H](C)NC(=O)[C@H](C)NC(=O)[C@H](CC(C)C)N(C)C(=O)[C@H](C(C)C)NC(=O)[C@H](CC(C)C)N(C)C(=O)CN(C)C1=O [6-(5-Ethyl-11,17,26,29-tetraisobutyl-14,32-diisopropyl-1,7,10,16,20,23,25,28,31-nonamethyl-3,6,9,12,15,18,21,24,27,30,33-undecaoxo-1,4,7,10,13,16,19,22,25,28,31undecaaza-cyclotritriacont-2-yl)-6-hydroxy-5-methyl-hexanoic acid methylsulfanylmethylester]",< 5.30
4,"CC[C@@H]1NC(=O)[C@H]([C@H](O)[C@H](C)CCCC(=O)OC)N(C)C(=O)[C@H](C(C)C)N(C)C(=O)[C@H](CC(C)C)N(C)C(=O)[C@H](CC(C)C)N(C)C(=O)[C@@H](C)NC(=O)[C@H](C)NC(=O)[C@H](CC(C)C)N(C)C(=O)[C@H](C(C)C)NC(=O)[C@H](CC(C)C)N(C)C(=O)CN(C)C1=O [6-(5-Ethyl-11,17,26,29-tetraisobutyl-14,32-diisopropyl-1,7,10,16,20,23,25,28,31-nonamethyl-3,6,9,12,15,18,21,24,27,30,33-undecaoxo-1,4,7,10,13,16,19,22,25,28,31undecaaza-cyclotritriacont-2-yl)-6-hydroxy-5-methyl-hexanoic acid methyl ester]",6.05
5,"CC[C@@H]1NC(=O)[C@H]([C@H](O)[C@H](C)CCCC(=O)OCCF)N(C)C(=O)[C@H](C(C)C)N(C)C(=O)[C@H](CC(C)C)N(C)C(=O)[C@H](CC(C)C)N(C)C(=O)[C@@H](C)NC(=O)[C@H](C)NC(=O)[C@H](CC(C)C)N(C)C(=O)[C@H](C(C)C)NC(=O)[C@H](CC(C)C)N(C)C(=O)CN(C)C1=O [6-(5-Ethyl-11,17,26,29-tetraisobutyl-14,32-diisopropyl-1,7,10,16,20,23,25,28,31-nonamethyl-3,6,9,12,15,18,21,24,27,30,33-undecaoxo-1,4,7,10,13,16,19,22,25,28,31undecaaza-cyclotritriacont-2-yl)-6-hydroxy-5-methyl-hexanoic acid 2-fluoro-ethyl ester]",5.81
6,"CC[C@@H]1NC(=O)[C@H]([C@H](O)[C@H](C)C/C=C/C(=O)O)N(C)C(=O)[C@H](C(C)C)N(C)C(=O)[C@H](CC(C)C)N(C)C(=O)[C@H](CC(C)C)N(C)C(=O)[C@@H](C)NC(=O)[C@H](C)NC(=O)[C@H](CC(C)C)N(C)C(=O)[C@H](C(C)C)NC(=O)[C@H](CC(C)C)N(C)C(=O)CN(C)C1=O [6-(5-Ethyl-11,17,26,29-tetraisobutyl-14,32-diisopropyl-1,7,10,16,20,23,25,28,31-nonamethyl-3,6,9,12,15,18,21,24,27,30,33-undecaoxo-1,4,7,10,13,16,19,22,25,28,31undecaaza-cyclotritriacont-2-yl)-6-hydroxy-5-methyl-hex-2-enoic acid]",< 5.30

# The next lines start with the values.
row,pIC50,Structure (SMILES)
1,6.20,"CC[C@@H]1NC(=O)[C@H]([C@H](O)[C@H](C)C/C=C/C(=O)OCCF)N(C)C(=O)[C@H](C(C)C)N(C)C(=O)[C@H](CC(C)C)N(C)C(=O)[C@H](CC(C)C)N(C)C(=O)[C@@H](C)NC(=O)[C@H](C)NC(=O)[C@H](CC(C)C)N(C)C(=O)[C@H](C(C)C)NC(=O)[C@H](CC(C)C)N(C)C(=O)CN(C)C1=O [6-(5-Ethyl-11,17,26,29-tetraisobutyl-14,32-diisopropyl-1,7,10,16,20,23,25,28,31-nonamethyl-3,6,9,12,15,18,21,24,27,30,33-undecaoxo-1,4,7,10,13,16,19,22,25,28,31undecaaza-cyclotritriacont-2-yl)-6-hydroxy-5-methyl-hex-2-enoic acid 2-fluoro-ethyl ester]"
2,6.44,"CCOC(=O)/C=C/C[C@@H](C)[C@@H](O)[C@H]1C(=O)N[C@@H](CC)C(=O)N(C)CC(=O)N(C)[C@@H](CC(C)C)C(=O)N[C@@H](C(C)C)C(=O)N(C)[C@@H](CC(C)C)C(=O)N[C@@H](C)C(=O)N[C@H](C)C(=O)N(C)[C@@H](CC(C)C)C(=O)N(C)[C@@H](CC(C)C)C(=O)N(C)[C@@H](C(C)C)C(=O)N1C [6-(5-Ethyl-11,17,26,29-tetraisobutyl-14,32-diisopropyl-1,7,10,16,20,23,25,28,31-nonamethyl-3,6,9,12,15,18,21,24,27,30,33-undecaoxo-1,4,7,10,13,16,19,22,25,28,31undecaaza-cyclotritriacont-2-yl)-6-hydroxy-5-methyl-hex-2-enoic acid ethyl ester]"
